Results published in patent US20170246311A1, “PEPTIDES FOR BINDING ALTERNATIVELY ACTIVATED MACROPHAGES” (University of Washington, priority 2016, published 2017).
Positions of bridges follow the written chain, without caps; N, C: chain ends. Non-standard residues stand in square brackets, D forms with d. Residues, ends and D or L forms follow the SMILES beside them. *: point of attachment. Biotin = O=C1N[C@H]2[C@H](CS[C@H]2CCCCC(=O)*)N1; Hyp = O=C(O)[C@@H]1C[C@@H](O)CN1

Key:
M2 macrophages = assay: Binding study of biotinylated peptides on polarized bone marrow-derived macrophages (streptavidin-FITC, flow cytometry); assay type: cell-based, mouse; details: biotinylated peptide, on ice 20 min
Procedure: All animal handling protocols were approved by the University of Washington Institutional Animal Care and Use Committee. Bone marrow harvest was performed following the previously reported protocol. Briefly, femur and tibia were excised from 6-8 week-old female c57bl6/027 mice. Cuts were made on the ends of each bone, and RPMI 1640 medium was used to flush out bone marrow cells via 18G needle. The cells were cultured on petri dishes in RPMI 1640 medium supplemented with 20% donor horse serum, 1% antibiotic-antimycotic (AbAm), and 20 ng/mL M-CSF. After 7 d of culture, macrophages were activated by replacing M-CSF with 25 ng/mL IFN-γ and 100 ng/mL LPS for M1 macrophage or 25 ng/mL IL-4 for M2 macrophage. The macrophages were activated for 2 d and then scraped off the petri dishes with cell lifter for binding studies.
Peptide solutions at different concentrations for binding study were prepared by dilutions from the stock solution (10 mg/mL in dH2O) with PBS containing 1% BSA (PBSA). M1 and M2 macrophages (50,000 cells/well) were seeded on a black 96-well plate and incubated in the peptide solutions on ice for 20 min. Unbound peptides were washed off with PBSA twice. The macrophages were subsequently incubated with streptavidin-FITC for 15 min on ice to probe for the bound peptides. Excess streptavidin-FITC was washed off with PBSA twice, and the macrophages were then resuspended in PBS for analysis by MACSQuant Flow Cytometer (Miltenyi Biotec, San Diego, Calif.). Propidium iodide was added to the samples before the data acquisition to discriminate dead cells. Flow cytometry data were analyzed with FlowJo Analysis Software (Tree Star, Ashland, Oreg.). Binding study of peptides post serum incubation was similarly performed with the following additions: The peptides (5 mM stock solution in H2O) were diluted in serum to a final concentration of 0.5 mM and incubated at 37° C. in an incubator. At each time point, an aliquot of the peptides was drawn and diluted in PBS to the final concentration for the binding study. The diluted aliquot was heated at 80° C. for 30 min to inactivate serum proteins, stored in a −20° C. freezer, and thawed for use in the binding study after aliquots at all time points were collected.
All animal handling protocols were approved by the University of Washington Institutional Animal Care and Use Committee. Bone marrow-derived cells were harvested from female c57bl/6 mice as previously described. In brief, femurs and tibias of the mice were excised and flushed with RPMI 1640 medium via an 18G needle. The cells were cultured on petri dishes containing RPMI 1640 medium supplemented with 20% donor horse serum, 1% antibioticantimycotic (AbAm), and 20 ng/mL M-CSF. After 7 d in culture, the medium was replaced with an activation medium whereby M-CSF was replaced with 25 ng/mL IFN-γ and 100 ng/mL LPS for M1 activation or with 25 ng/mL IL-4 for M2 activation. For M1 activation medium, AbAm was replaced with 1% penicillin-streptomycin (Pen-Strep). After 2 d of activation, the activated macrophages were scraped off the petri dishes for binding studies.
Biotinylated peptide stock solutions were prepared in H2O at 10 mg/mL concentration and quantified for the exact concentration using Quant*Tag Biotin quantification kit. The stock solutions were diluted in PBS with 1% BSA (PBSA) to different concentrations for binding studies. Activated macrophages were seeded on a black 96-well plate (50,000 cells/well) and incubated with the peptide solutions for 20 min on ice. The cells were washed twice with PBSA and subsequently incubated with streptavidin-FITC for 15 min on ice. After two additional washes, the cells were resuspended in PBS for analysis via MACSQuant Flow Cytometer (Miltenyi Biotec, San Diego, Calif.). Propidium iodide (PI) was added before running each sample to assess for cell viability. Data analysis was processed on FlowJo Analysis Software (Tree Star, Ashland, Oreg.). […]

[1] = Serum stability study in normal mouse serum, analysis by MALDI-TOF MS; details: mouse serum
Procedure: The peptide of interest (30 μL of 10 mg/mL stock solution in dH2O) was added to normal mouse serum (300 μL) and incubated at 37° C. in an incubator. At each time point, an aliquot of 40 μL was drawn and an equal volume of ACN was added to the aliquot to precipitate serum proteins. The cloudy mixture was centrifuged at 10,000 rpm for 5 min and then supernatant removed. A solution of 1:1 H2O/ACN (80 μL) was added to the pellet and sonicated for 10 min to further extract the remaining peptides. This resuspended mixture was then centrifuged, and the supernatant was pooled with the former and vacuum-dried on a Speedvac machine. The dried pellet was solubilized in H2O (50 μL) by sonication for 10 min. The mixture was then centrifuged, and the supernatant was drawn and analyzed by MALDI-TOF MS.
To evaluate serum stability of M2pep, the peptide was incubated in mouse serum, and aliquots of the serum at various time points were withdrawn for analysis of degradation patterns by MALDI-TOF MS.
Different M2pep analogs (30 μL from 10 mg/mL stock solution in H2O) were incubated in normal mouse serum (300 μL) at 37° C. in an incubator. An aliquot of the serum (40 μL) was drawn at different time intervals and precipitated with an equal volume of cold ACN. The mixture was centrifuged at 15,000 rpm for 5 min, and the supernatant was collected. A solution of H2O/ACN (1:1 v/v, 80 μL) was added to the pellet with a 10-min sonication to further extract residual peptides. The mixture was then centrifuged. The supernatant was pooled with the former and dried under vacuum on a Speedvac machine. The peptide pellet was resuspended in H2O (50 μL) with a 10-min sonication before analysis by MALDI-ToF MS.

| Compound | binding activity to M2 macrophages (in words) (M2 macrophages) | serum stability at the W10/W11 endolytic cleavage site [1] |
| --- | --- | --- |
| Biotin-Ahx-GRGRGRG(C-DFBP)G [reference compound] | binds very weakly to macrophages even at 100 μM | – |
| CC(=O)N[C@@H](Cc1ccc(O)cc1)C(=O)N[C@@H](CCC(=O)O)C(=O)N[C@@H](CCC(N)=O)C(=O)N[C@@H](CC(=O)O)C(=O)N1CCC[C@H]1C(=O)N[C@@H](Cc1c[nH]c2ccccc12)C(=O)NCC(=O)N[C@H](C(=O)N[C@@H](CCCNC(=N)N)C(=O)N[C@@H](Cc1c[nH]c2ccccc12)C(=O)N[C@@H](Cc1c[nH]c2ccccc12)C(=O)N[C@@H](Cc1ccc(O)cc1)C(=O)NCC(=O)NCC(=O)NCC(=O)N[C@@H](CO)C(=O)N[C@@H](CCCCN)C(=O)N[C@@H](CCCCN)C(=O)N[C@@H](CCCCN)C(=O)N[C@@H](CCCCNC(=O)CCCC[C@@H]1SC[C@@H]2NC(=O)N[C@@H]21)C(N)=O)C(C)C [K9R, Ac-YEQDPWGVRWWYGGGSKKK] | significantly increased binding activity | did not confer protection at the W10/W11 site |
| Fc1c(F)c(F)c(-c2c(F)c(F)c(F)c(F)c2F)c(F)c1F [DFBP, decafluorobiphenyl, reference compound] | negligible binding to M2 macrophages | – |
| CC(=O)N[C@@H](Cc1ccc(O)cc1)C(=O)N[C@@H](CCC(=O)O)C(=O)N[C@@H](CCC(N)=O)C(=O)N[C@@H](CC(=O)O)C(=O)N1CCC[C@H]1C(=O)N[C@@H](Cc1c[nH]c2ccccc12)C(=O)NCC(=O)N[C@H](C(=O)N[C@@H](CCCCN)C(=O)N[C@H](Cc1c[nH]c2ccccc12)C(=O)N[C@@H](Cc1c[nH]c2ccccc12)C(=O)N[C@@H](Cc1ccc(O)cc1)C(=O)NCC(=O)NCC(=O)NCC(=O)N[C@@H](CO)C(=O)N[C@@H](CCCCN)C(=O)N[C@@H](CCCCN)C(=O)N[C@@H](CCCCN)C(=O)N[C@@H](CCCCNC(=O)CCCC[C@@H]1SC[C@@H]2NC(=O)N[C@@H]21)C(N)=O)C(C)C [W10w, Ac-YEQDPWGVKwWYGGGSKKK] | abrogated binding activity | effective protection against endolytic cleavage at the W10/W11 site |
| CC(=O)N[C@@H](Cc1ccc(O)cc1)C(=O)N[C@@H](CCC(=O)O)C(=O)N[C@@H](CCC(N)=O)C(=O)N[C@@H](CC(=O)O)C(=O)N1CCC[C@H]1C(=O)N[C@@H](Cc1c[nH]c2ccccc12)C(=O)NCC(=O)N[C@H](C(=O)N[C@@H](CCCNC(=N)N)C(=O)N[C@@H](Cc1ccc(O)cc1)C(=O)N[C@@H](Cc1c[nH]c2ccccc12)C(=O)N[C@H](Cc1ccc(O)cc1)C(=O)NCC(=O)NCC(=O)NCC(=O)N[C@@H](CO)C(=O)N[C@H](CCCCN)C(=O)N[C@H](CCCCN)C(=O)N[C@H](CCCCN)C(=O)N[C@@H](CCCCNC(=O)CCCC[C@@H]1SC[C@@H]2NC(=O)N[C@@H]21)C(N)=O)C(C)C [Y12y, Ac-YEQDPWGVRYWyGGGSkkk] (Ac-YEQDPWGVRYW[dY]GGGS[dK][dK][dK]K(Biotin)-NH2) | reduced binding activity | did not improve serum stability at the W10/W11 site |
| CC(=O)N[C@@H](CCCNC(=N)N)C(=O)N[C@@H](Cc1ccc(O)cc1)C(=O)N[C@@H](CCC(=O)O)C(=O)N[C@@H](CCC(N)=O)C(=O)N[C@@H](CC(=O)O)C(=O)N1CCC[C@H]1C(=O)N[C@@H](Cc1c[nH]c2ccccc12)C(=O)NCC(=O)N[C@H](C(=O)N[C@@H](CCCNC(=N)N)C(=O)N[C@@H](Cc1ccc(O)cc1)C(=O)N[C@@H](Cc1c[nH]c2ccccc12)C(=O)N[C@H](Cc1ccc(O)cc1)C(=O)NCC(=O)NCC(=O)NCC(=O)N[C@@H](CO)C(=O)N[C@H](CCCCN)C(=O)N[C@H](CCCCN)C(=O)N[C@H](CCCCN)C(=O)N[C@@H](CCCCNC(=O)CCCC[C@@H]1SC[C@@H]2NC(=O)N[C@@H]21)C(N)=O)C(C)C [R0, Ac-RYEQDPWGVRYWyGGGSkkk] (Ac-RYEQDPWGVRYW[dY]GGGS[dK][dK][dK]K(Biotin)-NH2) | did not improve binding activity any further | – |
| Cc1cn(C)nn1 [Triazole-cyclized M2pep(RY)Biotin] | bind less strongly | – |
| CC(C)[C@@H]1NC(=O)CNC(=O)[C@H](Cc2c[nH]c3ccccc23)NC(=O)[C@@H]2CCCN2C(=O)[C@H](CC(=O)O)NC(=O)CNC(=O)[C@@H](N)CSSC[C@@H](C(=O)N[C@H](CCCCN)C(=O)N[C@H](CCCCN)C(=O)N[C@H](CCCCN)C(=O)N[C@@H](CCCCNC(=O)CCCC[C@@H]2SC[C@@H]3NC(=O)N[C@@H]32)C(N)=O)NC(=O)CNC(=O)[C@H](Cc2ccc(O)cc2)NC(=O)[C@H](Cc2c[nH]c3ccccc23)NC(=O)[C@H](Cc2ccc(O)cc2)NC(=O)[C@H](CCCNC(=N)N)NC1=O [cRYWY, CGDPWGVRYWYGCkkk] (H-CGDPWGVRYWYGC[dK][dK][dK]K(Biotin)-NH2; disulfide 1-13) | significantly lower binding activity compared to cyclic M2pep(RY)Biotin | – |
| CC(C)[C@@H]1NC(=O)CNC(=O)[C@H](Cc2c[nH]c3ccccc23)NC(=O)[C@@H]2CCCN2C(=O)[C@H](CC(=O)O)NC(=O)CNC(=O)[C@@H](N)CSSC[C@@H](C(=O)N[C@H](CCCCN)C(=O)N[C@H](CCCCN)C(=O)N[C@H](CCCCN)C(=O)N[C@@H](CCCCNC(=O)CCCC[C@@H]2SC[C@@H]3NC(=O)N[C@@H]32)C(N)=O)NC(=O)CNC(=O)[C@H](Cc2c[nH]c3ccccc23)NC(=O)[C@H](Cc2ccc(O)cc2)NC(=O)[C@H](CCCNC(=N)N)NC1=O [cRYW, CGDPWGVRYWGCkkk] (H-CGDPWGVRYWGC[dK][dK][dK]K(Biotin)-NH2; disulfide 1-12) | significantly lower binding activity compared to cyclic M2pep(RY)Biotin | – |
| CC(=O)N[C@@H](Cc1ccc(O)cc1)C(=O)N[C@@H](CCC(=O)O)C(=O)N[C@@H](CCC(N)=O)C(=O)N[C@@H](CC(=O)O)C(=O)N1CCC[C@H]1C(=O)N[C@@H](Cc1c[nH]c2ccccc12)C(=O)NCC(=O)N[C@H](C(=O)N[C@@H](CCCCN)C(=O)N[C@H](Cc1c[nH]c2ccccc12)C(=O)N[C@H](Cc1c[nH]c2ccccc12)C(=O)N[C@@H](Cc1ccc(O)cc1)C(=O)NCC(=O)NCC(=O)NCC(=O)N[C@@H](CO)C(=O)N[C@@H](CCCCN)C(=O)N[C@@H](CCCCN)C(=O)N[C@@H](CCCCN)C(=O)N[C@@H](CCCCNC(=O)CCCC[C@@H]1SC[C@@H]2NC(=O)N[C@@H]21)C(N)=O)C(C)C [W(10,11)w, Ac-YEQDPWGVKwwYGGGSKKK] | did not restore the binding activity | – |
| CC(=O)N[C@@H](Cc1ccc(O)cc1)C(=O)N[C@@H](CCC(=O)O)C(=O)N[C@@H](CCC(N)=O)C(=O)N[C@@H](CC(=O)O)C(=O)N1C[C@H](O)C[C@H]1C(=O)N[C@@H](Cc1c[nH]c2ccccc12)C(=O)NCC(=O)N[C@H](C(=O)N[C@@H](CCCNC(=N)N)C(=O)N[C@@H](Cc1ccc(O)cc1)C(=O)N[C@@H](Cc1c[nH]c2ccccc12)C(=O)N[C@H](Cc1ccc(O)cc1)C(=O)NCC(=O)NCC(=O)NCC(=O)N[C@@H](CO)C(=O)N[C@H](CCCCN)C(=O)N[C@H](CCCCN)C(=O)N[C@H](CCCCN)C(=O)N[C@@H](CCCCNC(=O)CCCC[C@@H]1SC[C@@H]2NC(=O)N[C@@H]21)C(N)=O)C(C)C [P5Hyp, Ac-YEQD(Hyp)WGVRYWyGGGSkkk] (Ac-YEQD[Hyp]WGVRYW[dY]GGGS[dK][dK][dK]K(Biotin)-NH2) | significantly ablated the binding activity | – |
